# Measured values taken from article PMC10573977, “PNA6, a Lactosyl Analogue of Angiotensin-(1-7), Reverses Pain Induced in Murine Models of Inflammation, Chemotherapy-Induced Peripheral Neuropathy, and Metastatic Bone Disease” (International Journal of Molecular Sciences, 2023).
# Residues, ends and D or L forms follow the SMILES beside them. *: point of attachment. X1 = OC[C@H]1O[C@@H](O[C@H]2[C@H](O)[C@@H](O)[C@H](*)O[C@@H]2CO)[C@H](O)[C@@H](O)[C@H]1O
# What was measured:
# cancer-induced bone loss = assay: Radiographic analysis of femur bone integrity (bone score); format: in vivo, mouse
# Source text: Radiographic images of mice’s right femurs with established (CIBP) or sham were captured using a Faxitron machine. Bone loss was rated and evaluated using a bone score scale by a blinded observer where 0 = normal healthy bone; 1 = 1–3 lesions; 2 = 4 to 6 lesions; 3 = uni-cortical bone fractures; and 4 = bicortical bone fractures.
# A digital Faxitron machine (Ultrafocus; Faxitron Bioptics, Tucson, AZ) was used to image the femurs of all mice (all groups in chronic studies) on days 0 (baseline), 7, 10, and 14 post-surgery to determine an average bone score and to exclude the data for any mice with full cortical fracture before day 14. Two blinded observers evaluated the images using a 5-point bone rating scale. Mice were anesthetized with 80 mg/kg ketamine to 12 mg/kg xylazine (in a 10 mL/kg volume) on day 0 before the surgery, D7, D10, and D14, and radiographs were acquired. The bone scoring scale was as follows: 0 = normal bone, 1 = 1–3 lesions with no fracture, 2 = 4+ lesions with no fracture, 3 = uni-cortical, full thickness fracture, and 4 = bicortical, full thickness fracture. Animals with bicortical, full fractures were euthanized as our IACUC protocol measures dictated.
# naïve mice = conditions: 1 mg/kg i.p., 30, 60, 90 and 120 min after treatment, 10 rpm, cut-off 180 s, vs vehicle
# Description: The rotarod test is widely used to evaluate the motor coordination of rodents, and we used it to determine the motor effect of PNA6 to prevent interpretation of behavior as a false positive. Four days before testing, naïve mice were trained to acclimate to the rotating rod (LE8505 Rota-Rod, Panlab Harvard Apparatus, Spain) at a constant speed of 10 rpm. A maximal cut-off time of 180 s was used to prevent exhaustion. On the day of testing, mice were baselined and re-evaluated at 30, 60, 90, and 120 min after treatment.
# [1] = no reference given, cited from earlier work
# Source text: Our team has taken a novel approach to treating CIPN by taking advantage of our extensive experience with the G-protein linked Mas receptor and its agonist Ang-(1-7) to develop a platform of glycosylated Ang-(1-7) Mas receptor agonists including PNA5 and PNA6 that have outstanding brain penetration, enhanced bioavailability, decreased brain and peripheral inflammation, improved cerebral blood flow, and restored cognitive function in our preclinical vascular dementia and TBI animal models. Activation of Mas decreases ROS and brain inflammation, increases cerebral circulation, increases inductio ...
# in vivo = conditions: male, Sprague Dawley, rat, serum, iv, 10 mg/kg
# Description: To directly compare the in vivo lifetime and the ability of PNA6 to cross the blood–brain barrier (BBB), we devised a methodology that combines simultaneous blood sampling with microdialysis. PNA6 was administered via a single tail vein injection at a dosage of 10 mg/kg. Blood samples were collected at specific time intervals relative to the injection, including t = −10, 1, 5, 10, 20, 30, 40, 50, 60, 70, 80, and 90 min (with t = 0 corresponding to the moment of injection) as shown in Figure 4. The determination of serum and cerebrospinal fluid (CSF) concentrations of PNA6 involved the utilization of a calibration curve, which accounted for factors such as dilution and probe recovery specific to each experimental condition.
# Animals for Dialysis: Male Sprague Dawley rats (275–325 g) were used for dialysis experiments in vivo.
# The compounds were injected intravenously at 10 mg/kg via a single tail vein injection. Blood draws were taken at t = −10, 1, 5, 10, 20, 30, 40, 50, 60, 70, 80, and 90 min (where t = 0 corresponds to injection). Microdialysis fractions were time-locked with blood draws at 10 min increments such that blood draws correlated with the median time of the microdialysis fraction. For microdialysis, a dual syringe pump (PHD 2000, Harvard Apparatus, Holliston, MA, USA) was set to a flow rate of 0.5 mL/minute. […]
# Mas receptor (MasR1) = conditions: cited from earlier work
# Source text: The renin-angiotensin system (RAS) is a crucial player in regulating blood pressure and fluid homeostasis. The octapeptide, Angiotensin II, is the first significant end product. Angiotensin II binds strongly to G-coupled protein receptors (GPCRs), Angiotensin receptor type 1 (AT1), to produce vasoconstriction, sodium-water retention, inflammation, and fibrosis; and it binds weakly to Angiotensin II receptor type II (AT2), which produces vasodilation and angiogenesis. Angiotensin II is cleaved by Angiotensin-converting enzyme 2 (ACE2) to yield the heptapeptide, Ang-(1-7), which ha ...
# [2] = target: Mas receptor (Homo sapiens) (UniProt P04201); conditions: cited from earlier work
# Chain of Mas receptor (Homo sapiens) (P04201 whole entry): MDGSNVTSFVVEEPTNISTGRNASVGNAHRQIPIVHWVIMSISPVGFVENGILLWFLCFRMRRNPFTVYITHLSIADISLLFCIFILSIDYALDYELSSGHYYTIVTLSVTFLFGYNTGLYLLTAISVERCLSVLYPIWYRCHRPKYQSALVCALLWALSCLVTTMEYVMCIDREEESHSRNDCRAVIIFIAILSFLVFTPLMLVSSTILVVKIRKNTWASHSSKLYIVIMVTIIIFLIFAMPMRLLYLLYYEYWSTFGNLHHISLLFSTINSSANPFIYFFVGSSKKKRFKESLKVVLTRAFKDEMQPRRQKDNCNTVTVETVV
# Chain of Angiotensin-(1-7) (P01019 whole entry, looked up): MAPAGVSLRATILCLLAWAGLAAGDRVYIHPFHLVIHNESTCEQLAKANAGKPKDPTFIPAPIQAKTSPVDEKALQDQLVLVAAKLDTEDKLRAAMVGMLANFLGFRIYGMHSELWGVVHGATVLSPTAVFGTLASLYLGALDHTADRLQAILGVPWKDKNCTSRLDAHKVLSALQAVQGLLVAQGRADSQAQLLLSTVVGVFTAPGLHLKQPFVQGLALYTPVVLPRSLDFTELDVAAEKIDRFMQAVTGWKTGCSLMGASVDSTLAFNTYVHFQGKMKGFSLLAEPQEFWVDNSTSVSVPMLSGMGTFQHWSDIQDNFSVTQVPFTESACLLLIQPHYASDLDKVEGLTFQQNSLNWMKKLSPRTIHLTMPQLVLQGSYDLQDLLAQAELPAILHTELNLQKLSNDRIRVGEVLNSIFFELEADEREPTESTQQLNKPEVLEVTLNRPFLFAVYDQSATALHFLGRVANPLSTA
compound,measurement,setting,value
"CC[C@H](C)[C@H](NC(=O)[C@H](Cc1ccc(O)cc1)NC(=O)[C@@H](NC(=O)[C@H](CCCNC(=N)N)NC(=O)[C@@H](N)CC(=O)O)C(C)C)C(=O)N[C@@H](Cc1c[nH]cn1)C(=O)N[C@@H](CO[C@@H]1O[C@H](CO)[C@@H](O[C@@H]2O[C@H](CO)[C@H](O)[C@H](O)[C@H]2O)[C@H](O)[C@H]1O)C(N)=O [PNA6, Asp-Arg-Val-Tyr-Ile-His-Ser-(O-β-Lact)-amide] (H-DRVYIHS(X1)-NH2)",cancer-induced bone loss vs vehicle,"cancer-induced bone loss; cancer-bearing mice, chronic treatment, radiographs day 14, n = 10–12",did not exacerbate cancer-induced bone loss degradation
same,bone remodeling in sham animals,"cancer-induced bone loss; sustained saline or PNA6, day 14",had no change in bone remodeling
same,time spent on the rotating rod,naïve mice,neither increased nor decreased the time
same,penetration into the CNS,[1]; 'has been shown',good penetration into the CNS
same,Tmax,in vivo,1 min
same,half-life,in vivo,22.1 min
"DRVYIHP [Ang-(1-7), Angiotensin-(1-7)]",selectivity for MasR1 over AT1 receptor,Mas receptor (MasR1); greater selectivity over AT1,60 fold
same,selectivity for MasR1 over AT2 receptor,Mas receptor (MasR1); greater selectivity over AT2,100 fold
same,half-life in vivo,[1]; degraded rapidly by enzymes,short half-life in vivo
Angiotensin-(1-7) (from UniProt P01019),Kd,[2],0.83 nM
